Test results as given in a melting point compilation (Tetko et al.; mined from patent text by program, amines drawn as free bases though some values may be those of a salt).

melting point	Structure (SMILES)
67 to 69 °C	Cc1cccc(C(=O)Cc2ccnc(NC(=O)c3ccccc3)c2)c1
138 to 140 °C	COc1cc(C(C)=O)ccc1OCCCN1CCN(c2nn(C(=O)c3ccccc3)c3cc(F)ccc23)CC1
125 to 140 °C	COc1cc(C(=O)N2CCC(CCN3CCC(C(=O)c4nc5ccccc5n4CCCC(=O)O)CC3)(c3ccc(Cl)c(Cl)c3)C2)cc(OC)c1OC (stereo unspecified)
189 °C	CCCCOC(=O)c1ccc2ccc(C(=O)NCc3ccc(O)c(O)c3)nc2c1OC(=O)C(C)(C)C
62 to 64 °C	CCOC(=O)C1CCc2c1sc(C)c2C(=O)c1ccc(SC)cc1 (stereo unspecified)
197 °C	CCc1c(C(=O)NNC(=O)C(O)c2cc(F)cc(F)c2)ccc(OC)c1C (stereo unspecified)
179 to 180 °C	O=C(NCc1cccs1)Nc1cc(N2CC(c3ccccc3)CC2=O)ccn1 (stereo unspecified)
228 to 231 °C	COc1ccc(C=NNc2ccc(S(N)(=O)=O)cc2)cc1
135 to 137 °C	CCn1nc(C(=O)NC2CN(C)CCN(Cc3cccc(C)c3)C2)c2ccccc21 (stereo unspecified)
175 to 177 °C	CCN(CC)C(=CC(=O)OC)N1C(=O)C(=[N+]=[N-])c2ccccc21
145 to 146 °C	CC(=O)N(c1cccc(Oc2ccccc2)c1)C(C)C(=O)O (stereo unspecified)
195 to 196 °C	CCCc1nc2cccc(C(=O)OC)c2n1Cc1ccc(-c2ccccc2-c2nnn[nH]2)cc1
177 to 178 °C	COc1ccc(-c2cccc3[nH]c4c(c23)CCN(Cc2ccccc2)CC4)c(C)c1
55 to 56 °C	COC(=O)c1ccc(OCC2CCCN(C)C2)cc1 (stereo unspecified)
222 to 224 °C	COc1cccc2c1cc(C(=O)O)n2CC(=O)OC(C)(C)C
59 to 62 °C	O=C(NCCN1CCOc2ccc(O)cc21)c1ccco1
89 to 91 °C	COCCNc1cccc(C(N)=O)c1
212 °C	O=C1Cc2cc3cc(OCCCC(=O)N4CCN(CC5CCCCC5)CC4)ccc3nc2N1

melting point	Structure (SMILES)
102 to 104 °C	C=C1C=C(Oc2cc(C(=O)Nc3c(Cl)cncc3Cl)ccc2OC)C1(F)F
133 to 135 °C	Cc1ccc(S(=O)(=O)Nc2cccc(-c3cc(O)c(SCCc4ccccc4)c(=O)o3)c2)cc1
> 250 °C	O=c1[nH]c2scnc2c2c(O)cccc12
93 to 94 °C	CC(C)(C)OC(=O)CC(NC(=O)CCNC(=O)Cc1ccc(C#N)cc1)C(=O)NC(Cc1ccccc1)C(=O)OC(C)(C)C (stereo unspecified)
125 to 126 °C	CC(C)Cc1nn(-c2ccccc2)c(CC(C)C)c1CC(=O)O
104 to 107 °C	N#Cc1ccc(OCCCCCCCCCCCCOc2ccc(C#N)c(C#N)c2)cc1C#N
191 to 193 °C	Cc1ccsc1C=C1CCc2cc(OCCc3c[nH]cn3)ccc2C1=O
> 300 °C	Cc1ccccc1C=C1CCc2c1oc1ccc(C(=O)O)cc1c2=O
129 to 132 °C	CCCCOc1c(-c2ccc(S(C)(=O)=O)cc2)cnn(-c2ccc(F)c(F)c2)c1=O
96 °C	CC(C)COC(=O)c1ccc(OCC(=NO)c2ccc3c(c2)C(C)(C)CCC3(C)C)cc1O
184 to 185 °C	Cc1nc(NC(=O)Nc2ccc(N3CCN(C(=O)Nc4ccc(OCCO)cc4Cl)CC3)nc2)sc1C
171 to 173 °C	COCCN(C)CC(=O)N(C)Cc1ccc(C(=O)Nc2nc3c(OC)ccc(N4CCOCC4)c3s2)cc1
196 to 197 °C	CC(C)n1nc(-c2cc(I)c(N)nc2-c2ccccc2)ccc1=O
140 °C	CCCCc1cn(Cc2ccc(-c3ccccc3C(=O)OC)cc2)c2cc(CO)ccc2c1=O
95 °C	CN1CCC(OC2c3ccccc3CCn3c2nc(-c2ccc(C(=O)OC(C)(C)C)cc2)c3C#N)CC1 (stereo unspecified)
151 to 153 °C	COC(=O)c1nc(N2CCCC2)ccc1Oc1nc(OC)cc(OC)n1
124 to 126 °C	CCCc1c(OCCCS(=O)(=O)c2ccc(CC(=O)OC)cn2)ccc(C(C)=O)c1O
61 to 63 °C	CC(C)c1ccc(C(Cl)=NO)cc1

More lines, now with the values behind:

Structure (SMILES)	melting point
Cc1ccc(S(=O)(=O)OC(C)(c2ccccc2)C(F)(F)F)cc1 (stereo unspecified)	102 °C
CN(C)c1cc(CC(=O)O)cc(Cc2nc3c(F)c(F)cc(F)c3s2)c1	114 to 115 °C
CCSC(c1ccc(Cl)cc1Cl)C(C(=O)C(C)(C)CF)n1cncn1 (stereo unspecified)	130 °C
N#Cc1cc(-c2c(-c3ccccc3)nn3ccccc23)c[nH]c1=O	312 to 314 °C
O=C1NCN(c2ccccc2)C12CCN(C[C@@H]1CCc3ccc(Cl)cc3[C@H]1O)CC2 (relative stereo)	248 to 249 °C
O=C1C(Cl)=C(c2ccccc2)C(=O)N1Nc1ccc(F)cc1	115 to 117 °C
COCc1cc(OC)c(C=O)c(OC)c1	72 to 76 °C
O=c1c2c(Cc3ccc(C(F)(F)F)cc3)n[nH]c2c2cccnc2n1-c1cccc(C(F)(F)F)c1	145 to 148 °C
O=C(/C=C/C=C/c1ccccc1)NCCCCC(=O)NO	168 to 170 °C
Nc1ccc(C(c2ccc(F)cc2)n2ccnc2)cc1[N+](=O)[O-] (stereo unspecified)	147 °C
CC(C)NC(C(N)=S)c1ccccc1 (stereo unspecified)	98.6 °C
CCCCCCCCCCCCCCCCCCNC(=O)C(=O)Nc1ccc(Sc2ccc(O)cc2)cc1	163 °C
NCCc1cc(Cl)c(NC(=O)CN2CCN(CCCCC(c3ccc(F)cc3)c3ccc(F)cc3)CC2C(N)=O)c(Cl)c1 (stereo unspecified)	161 °C
CN1C(=O)Cc2ccccc2C1=O	113 to 115 °C
Cc1ccc(S(=O)(=O)n2ccc3c(CBr)cccc32)cc1	113 to 134 °C
Cc1nc[nH]c1CSCCN=C(NC#N)NCCc1c[nH]cn1	170 to 171 °C
Cc1ccc(S(=O)(=O)c2nnnn2C)cc1	110 to 111 °C
CC1CCN(C2C3=CC(OC3=O)C3C(CC4(C)OC4C2O)OC(=O)C3C)CC1 (stereo unspecified)	210 °C

Structure (SMILES)	melting point
Cc1ccc(-c2nc(O)c(C)s2)cc1	172 to 174 °C
Fc1cc(F)cc(N2c3ccccc3Sc3ccccc32)c1	111 to 115 °C
COc1cccc2c(Nc3ccccc3C)nc(N(C)C)nc12	141 to 143 °C
O=c1c(Cl)c(OCc2ccc(Cl)cc2)cnn1CCCBr	83 to 87 °C
CCCCCCCCCC[C@H](NP(=O)(c1ccccc1)c1ccccc1)c1ccccc1	95 to 96 °C
BrCc1cc(I)cc(I)c1I	120 to 121 °C
C=C1C(=C)C2OC1C1=C2Cc2c(cccc2OC)C1 (stereo unspecified)	145 to 147 °C
CCCCCCCCCCCCc1cc(N)on1	48.5 to 49.5 °C
CC(C)(C)c1cc(C=O)c2c(c1O)CCCC2	193 to 194 °C
COc1cc(OC)nc(NCC2COC3(CCC(C(C)(C)C)CC3)O2)n1 (stereo unspecified)	76 to 106 °C
N#Cc1ccc(O)c(O)c1O	172 °C
OCCCCCNc1nccc2cc3c(cc12)OCO3	132 to 134 °C
COC1Cc2ccc(F)cc2/C1=C/C(N)=O (stereo unspecified)	128 to 130 °C
CCCCCCCCCCC(O)C1CCC(C2CCC(C(O)CCCCCCCCCCC3CC(CC(C)=O)C(=O)O3)O2)O1 (stereo unspecified)	90.5 to 90.7 °C
COC1=NC(=O)c2c1cc1ccc3c(c1c2-c1ccc2c(c1)OCO2)OCO3	306 to 308 °C
O=C1c2ccccc2C(=O)c2c1c(Cl)c1ccc(Sc3ccccc3)cc1c2Cl	160 to 163 °C
CCOc1ccc2nc(CO)n(C)c2n1	161 °C
